Where “and” joins values, the source holds several entries; their conditions need not be identical. Equal entries are not always repeated. Inconclusive results and toxic doses are left out.
Tested on: L1210 leukemia ip in BDF1 mice, survival T/C
Test: NCI In Vivo Anticancer Drug Screen. Data for tumor model L1210 Leukemia (intraperitoneal) in B6D2F1 (BDF1) mice
Conditions: endpoint: mean survival time, higher = longer survival
In short: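 Ratio derived from survival: compound-dosed mice over vehicle-dosed mice, all bearing a transplantable tumor.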

[1] = dose: 100.0 mg/kg/injection, schedule: Q01DX009 (ip), vehicle: saline with Tween-80
[2] = dose: 200.0 mg/kg/injection, schedule: Q01DX009 (ip), vehicle: saline with Tween-80
[3] = dose: 400.0 mg/kg/injection, schedule: Q01DX009 (ip), vehicle: saline with Tween-80
[4] = dose: 100.0 mg/kg/injection, schedule: Q01DX001 (ip), vehicle: saline
[5] = dose: 200.0 mg/kg/injection, schedule: Q01DX001 (ip), vehicle: saline
[6] = dose: 12.5 mg/kg/injection, schedule: Q01DX009 (ip), vehicle: saline
[7] = dose: 25.0 mg/kg/injection, schedule: Q01DX009 (ip), vehicle: saline
[8] = dose: 50.0 mg/kg/injection, schedule: Q01DX009 (ip), vehicle: saline
[9] = dose: 100.0 mg/kg/injection, schedule: Q04DX002 (ip), vehicle: Klucel (hydroxypropylcellulose) (HPC)
[10] = dose: 200.0 mg/kg/injection, schedule: Q04DX002 (ip), vehicle: Klucel (hydroxypropylcellulose) (HPC)
[11] = dose: 400.0 mg/kg/injection, schedule: Q04DX002 (ip), vehicle: Klucel (hydroxypropylcellulose) (HPC)
[12] = dose: 100.0 mg/kg/injection, schedule: Q01DX009 (ip), vehicle: Klucel (hydroxypropylcellulose) (HPC)
[13] = dose: 100.0 mg/kg/injection, schedule: Q04DX003 (ip), vehicle: saline with Tween-80
[14] = dose: 200.0 mg/kg/injection, schedule: Q01DX009 (ip), vehicle: Klucel (hydroxypropylcellulose) (HPC)
[15] = dose: 200.0 mg/kg/injection, schedule: Q04DX003 (ip), vehicle: saline with Tween-80
[16] = dose: 400.0 mg/kg/injection, schedule: Q01DX009 (ip), vehicle: Klucel (hydroxypropylcellulose) (HPC)
[17] = dose: 400.0 mg/kg/injection, schedule: Q04DX003 (ip), vehicle: saline with Tween-80
[18] = dose: 100.0 mg/kg/injection, schedule: Q04DX003 (ip), vehicle: saline
[19] = dose: 200.0 mg/kg/injection, schedule: Q04DX003 (ip), vehicle: saline
[20] = dose: 400.0 mg/kg/injection, schedule: Q04DX003 (ip), vehicle: saline
[21] = dose: 100.0 mg/kg/injection, schedule: Q01DX001 (ip), vehicle: carboxymethylcellulose (CMC)
[22] = dose: 200.0 mg/kg/injection, schedule: Q01DX001 (ip), vehicle: carboxymethylcellulose (CMC)
[23] = dose: 400.0 mg/kg/injection, schedule: Q01DX001 (ip), vehicle: carboxymethylcellulose (CMC)

With `NC(=O)N/N=C/c1ccccc1N` the T/C [1] was 94 % of control, the T/C [2] was 94 % of control and the T/C [3] was 96 % of control.
`O=c1ssc(Cl)c1Cl` was tested, and the T/C (dose: 9.5 mg/kg/injection, schedule: Q01DX001 (ip), vehicle: other) was 94 % of control, the T/C (dose: 10.0 mg/kg/injection, schedule: Q04DX003 (ip), vehicle: other) was 97 % of control and the T/C (dose: 19.0 mg/kg/injection, schedule: Q01DX001 (ip), vehicle: other) was 103 % of control. The T/C (dose: 20.0 mg/kg/injection, schedule: Q04DX003 (ip), vehicle: other) was 107 % of control, the T/C (dose: 38.0 mg/kg/injection, schedule: Q01DX001 (ip), vehicle: other) was 87 % of control and the T/C (dose: 40.0 mg/kg/injection, schedule: Q04DX003 (ip), vehicle: other) was 88 % of control.
With `CCCCCCCCOC(=O)c1[nH]cnc1N` the T/C (dose: 50.0 mg/kg/injection, schedule: Q01DX001 (ip), vehicle: saline) was 100 % of control, the T/C [4] was 96 % of control and the T/C [5] was 96 % of control.
For `CC(CCN1CCOCC1)(CN=C(N)N)c1cccc2ccccc12` (centres undefined), the T/C [6] was 111 % of control, the T/C [7] was 97 % of control and the T/C (dose: 25.0 mg/kg/injection, schedule: Q04DX002 (ip), vehicle: saline) was 93 % of control. The T/C [8] was 100 % of control.
`CCOc1ccc(P2(=S)SP(=S)(c3ccc(OCC)cc3)S2)cc1` (centres undefined) was tested, and the T/C [1] was 97 % of control, the T/C [9] was 94 % of control and the T/C [2] was 91 % of control. The T/C [10] was 88 % of control, the T/C [3] was 102 % of control and the T/C [11] was 102 % of control.
With `O=C(NCc1ccccc1)C(F)(F)F` the T/C (dose: 100.0 mg/kg/injection, schedule: Q01DX001 (ip), vehicle: saline with Tween-80) was 102 % of control, the T/C (dose: 200.0 mg/kg/injection, schedule: Q01DX001 (ip), vehicle: saline with Tween-80) was 102 % of control and the T/C (dose: 400.0 mg/kg/injection, schedule: Q01DX001 (ip), vehicle: saline with Tween-80) was 100 % of control.
For `c1nc(SC2=NCCN2)c2[nH]cnc2n1`, the T/C (dose: 2.62 mg/kg/injection, schedule: Q01DX Z (ip), vehicle: saline) was 116 % of control, the T/C (dose: 5.0 mg/kg/injection, schedule: Q01DX001 (ip), vehicle: saline) was 100 % of control and the T/C (dose: 5.25 mg/kg/injection, schedule: Q01DX Z (ip), vehicle: saline) was 118 % of control. The T/C (dose: 5.25 mg/kg/injection, schedule: Q01DX Z (oral), vehicle: saline) was 114 % of control, the T/C (dose: 10.0 mg/kg/injection, schedule: Q01DX001 (ip), vehicle: saline) was 105 % of control and the T/C (dose: 10.5 mg/kg/injection, schedule: Q01DX Z (oral), vehicle: saline) was 114 % of control. The T/C [6] was 115 % of control, the T/C (dose: 12.5 mg/kg/injection, schedule: Q04DX003 (ip), vehicle: saline) was 109 % of control and the T/C (dose: 20.0 mg/kg/injection, schedule: Q01DX001 (ip), vehicle: saline) was 103 % of control. The T/C (dose: 22.0 mg/kg/injection, schedule: Q04DX003 (ip), vehicle: saline) was 106 % of control, the T/C [7] was 118 % of control and the T/C (dose: 25.0 mg/kg/injection, schedule: Q04DX003 (ip), vehicle: saline) was 117 % of control. For the same compound, the T/C (dose: 33.0 mg/kg/injection, schedule: Q04DX003 (ip), vehicle: saline) was 114 % of control and 116 % of control, the T/C (dose: 40.0 mg/kg/injection, schedule: Q01DX001 (ip), vehicle: saline) was 108 % of control and the T/C (dose: 42.0 mg/kg/injection, schedule: Q01DX Z (ip), vehicle: saline) was 156 % of control. The T/C [8] was 150 % of control and 178 % of control, the T/C (dose: 50.0 mg/kg/injection, schedule: Q04DX003 (ip), vehicle: saline) was 115 % of control and 118 % of control and the T/C (dose: 168.0 mg/kg/injection, schedule: Q01DX Z (oral), vehicle: saline) was 87 % of control.
For `CCC(C(C)=O)C(C)=O.CCC(C(C)=O)C(C)=O.[Cu]`, the T/C (dose: 6.0 mg/kg/injection, schedule: Q01DX001 (ip), vehicle: saline) was 95 % of control, the T/C (dose: 12.0 mg/kg/injection, schedule: Q01DX001 (ip), vehicle: saline) was 101 % of control and the T/C (dose: 25.0 mg/kg/injection, schedule: Q01DX001 (ip), vehicle: saline) was 112 % of control.
In the case of `CCOC(=O)C1=NN(c2ccccc2)C(=O)C1`, the T/C [12] is reported as 105 % of control, the T/C (dose: 100.0 mg/kg/injection, schedule: Q04DX003 (ip), vehicle: Klucel (hydroxypropylcellulose) (HPC)) is reported as 98 % of control and the T/C [13] is reported as 94 % of control. For the same compound, the T/C [14] was 103 % of control, the T/C (dose: 200.0 mg/kg/injection, schedule: Q04DX003 (ip), vehicle: Klucel (hydroxypropylcellulose) (HPC)) was 96 % of control and the T/C [15] was 100 % of control. The T/C [16] was 92 % of control, the T/C (dose: 400.0 mg/kg/injection, schedule: Q04DX003 (ip), vehicle: Klucel (hydroxypropylcellulose) (HPC)) was 102 % of control and the T/C [17] was 93 % of control.
With `COc1cc2c(cc1OC)C(CCN1C(=O)CCC1=O)NCC2` (centres undefined) the T/C [1] was 92 % of control and the T/C [2] was 98 % of control.
`CSc1nc(Cl)c(Cl)c(SC)n1` (tested in a mixture with another compound) was tested, and the T/C (dose: 50.0 mg/kg/injection, schedule: Q01DX009 (ip), vehicle: Klucel (hydroxypropylcellulose) (HPC)) was 87 % of control and the T/C [12] was 87 % of control.
For `Nc1cccc(CC(N)C(=O)O)c1` (centres undefined), the T/C [18] was 100 % of control, the T/C [19] was 93 % of control and the T/C [20] was 100 % of control.
In the case of `CSCCNC(=O)NS(=O)(=O)c1ccc(Cl)cc1`, the T/C [18] is reported as 96 % of control, the T/C [19] is reported as 97 % of control and the T/C [20] is reported as 92 % of control.
In the case of `CC(=O)c1cc(Cl)ccc1O`, the T/C (dose: 100.0 mg/kg/injection, schedule: Q01DX001 (ip), vehicle: Klucel (hydroxypropylcellulose) (HPC)) is reported as 104 % of control, the T/C [9] is reported as 100 % of control and the T/C (dose: 200.0 mg/kg/injection, schedule: Q01DX001 (ip), vehicle: Klucel (hydroxypropylcellulose) (HPC)) is reported as 106 % of control. The T/C [10] was 96 % of control, the T/C (dose: 400.0 mg/kg/injection, schedule: Q01DX001 (ip), vehicle: Klucel (hydroxypropylcellulose) (HPC)) was 97 % of control and the T/C [11] was 89 % of control.
With `CCCCOC(=Nc1ccccc1)N(c1ccccc1)c1ccccc1` the T/C (dose: 222.0 mg/kg/injection, schedule: Q01DX Z (ip), vehicle: methylcellulose (MC)) was 88 % of control, the T/C (dose: 333.0 mg/kg/injection, schedule: Q01DX Z (ip), vehicle: methylcellulose (MC)) was 94 % of control and the T/C (dose: 500.0 mg/kg/injection, schedule: Q01DX Z (ip), vehicle: methylcellulose (MC)) was 98 % of control.
`CC(=O)/C=C\c1ccc([N+](=O)[O-])o1` was tested, and the T/C [9] was 115 % of control and the T/C [10] was 89 % of control.
With `Cc1ccc(C2(C#N)CCCCC2)cc1` the T/C [1] was 96 % of control, the T/C [13] was 108 % of control and the T/C [2] was 110 % of control. The T/C [15] was 98 % of control, the T/C [3] was 110 % of control and the T/C [17] was 101 % of control.
`O=C(c1ccccc1[N+](=O)[O-])N(O)c1ccc(/C=C/c2ccccc2)cc1` was tested, and the T/C [21] was 93 % of control, the T/C [22] was 95 % of control and the T/C [23] was 95 % of control.
For `COc1ccc(C=Nc2cc([N+](=O)[O-])ccc2O)cc1`, the T/C [21] was 98 % of control, the T/C [22] was 98 % of control and the T/C [23] was 94 % of control.
For `COc1ccc(NC(=O)Oc2ccc(Cl)cc2C)c(OC)c1`, the T/C [12] was 104 % of control, the T/C [14] was 108 % of control and the T/C [16] was 108 % of control.
`Nc1ccn(CC(=O)N2CCOCC2)c(=O)n1` was tested, and the T/C (dose: 25.0 mg/kg/injection, schedule: Q01DX009 (ip), vehicle: water) was 93 % of control, the T/C (dose: 50.0 mg/kg/injection, schedule: Q01DX009 (ip), vehicle: water) was 87 % of control and the T/C (dose: 100.0 mg/kg/injection, schedule: Q01DX009 (ip), vehicle: water) was 87 % of control. For the same compound, the T/C (dose: 200.0 mg/kg/injection, schedule: Q01DX009 (ip), vehicle: water) was 93 % of control and the T/C (dose: 400.0 mg/kg/injection, schedule: Q01DX009 (ip), vehicle: water) was 88 % of control.
For `NC1=NN(c2c(Cl)cc(Cl)cc2Cl)C(=O)C1`, the T/C [4] was 96 % of control, the T/C [5] was 94 % of control and the T/C (dose: 400.0 mg/kg/injection, schedule: Q01DX001 (ip), vehicle: saline) was 100 % of control.

Source: PubChem BioAssay AID248 (DTP/NCI, 2004)
